Experimental data published in patent US20060093561A1, “Method of treating microorganisms in the oral cavity” (priority 2004, published 2006).

Experiments:
P. intermedia = test: Photodynamic therapy assay after serum washout of bacteria; type: cell-based, Prevotella intermedia 25611; details: xenon lamp 10 J/cm^2, 100 mW/cm^2, 12.5 μg/ml TBO
Text: (§1) The following bacteria were used in these experiments and cultivated in an anaerobic chamber (available commercially from Coy Manufacturing Co.; AnnArbor, Mich., USA): Porphyromonas gingivalis 381; Prevotella intermedia 25611; Actinobacillus actinomycetemcomitans UT32; Fusobacterium nucleatum 1213; Bacteroides forsythus 43037. P. gingivalis and P. intermedia strains were subcultured weekly in Todd Hewitt Broth (available commercially from Fisher Scientific; Nepean, Ontario, Canada; hereinafter referred to as Fisher) supplemented with 5 μg/ml hemin (Sigma-Aldrich Co.; Oakville, Ontario, Canada; hereinafter referred to as Sigma) and 1 μg/ml menadione (Sigma). A. actinomycetemcomitans was subcultured in Tryptic Soy Broth (Fisher) containing 6 g/l yeast extract (Fisher) and 8 ml of 1.5% sodium bicarbonate, filter sterilized (Fisher). F. nucleatum was subcultured in Todd Hewitt Broth. […]
(§2) Prior to light irradiation, 75 μl of calibrated bacterial suspension (7.5×10^8 cfu) was mixed with 75 μl of TBO stock solution (100 μg/ml) in a sterile tube, for a final mixture concentration of 5×10^9 cfu/ml and 50 μg/ml TBO. […] Colony counts determined the number of bacterial survivors and they were expressed as cfu/ml. […]

P. gingivalis [1] = test: Photodynamic therapy assay, serum and blood bacteria suspensions; type: cell-based, Porphyromonas gingivalis 381
Protocol: (§3) An overnight bacterial culture was removed from the anaerobic chamber and centrifuged at 2400×g for 5 minutes in an IEC21000R centrifuge (Fisher). The supernatant was discarded and the pellet washed and resuspended three times in PBS. The bacterial suspension was then adjusted to a working concentration of approximately 10^10 colony forming units (cfu)/ml by measurement of optical density at 600 nm (Pharmacia LKB Ultraspec III). The suspension was returned to the anaerobic chamber and aliquoted in pre-reduced 1.5 ml microfuge tubes (Fisher) in order to decrease oxygen exposure of the anaerobic suspension.
(§4) Prior to light irradiation, 75 μl of calibrated bacterial suspension (7.5×10^8 cfu) was mixed with 75 μl of TBO stock solution (100 μg/ml) in a sterile tube, for a final mixture concentration of 5×10^9 cfu/ml and 50 μg/ml TBO. The mixture was then incubated at room temperature for 5 min. in the dark. TBO negative controls were incubated with an equal volume of sterile PBS instead of TBO. The mixture was then added to a sterilized perfusion chamber (Cedarlane Laboratories) mounted on a glass coverslip. The perfusion chamber was 500 μm thick, and so attenuation of the treatment light by the TBO was only 30% at 50 μg/ml. For most treatments at a concentration of 12.5 μg/ml TBO, the attenuation of treatment light was only 9%. The inoculated perfusion chamber was irradiated under the desired conditions with a light beam whose diameter covered the perfusion chamber's transparent surface. […] Colony counts determined the number of bacterial survivors and they were expressed as cfu/ml. […]

A. actinomycetemcomitans = test: Photodynamic therapy assay after serum washout of bacteria; type: cell-based, Actinobacillus actinomycetemcomitans UT32; details: xenon lamp 10 J/cm^2, 100 mW/cm^2, 12.5 μg/ml TBO
Text: as §1, §2

P. gingivalis [2] = test: as above; type: cell-based, Porphyromonas gingivalis 381
Protocol: as §3
as §4, with “μg/ml.” for “μg/ml. For most treatments at a concentration of 12.5 μg/ml TBO, the attenuation of treatment light was only 9%. The inoculated perfusion chamber was irradiated under the desired conditions with a light beam whose diameter covered the perfusion chamber's transparent surface.”

F. nucleatum = test: as above; type: cell-based, Fusobacterium nucleatum 1213; details: xenon lamp 10 J/cm^2, 100 mW/cm^2, 12.5 μg/ml TBO
Text: as §1, §2

B. forsythus = test: as above; type: cell-based, Bacteroides forsythus 43037; details: xenon lamp 10 J/cm^2, 100 mW/cm^2, 12.5 μg/ml TBO
Text: as §1, §2

[3] = Storage stability of TBO stock solution; type: physicochemical; details: 1 mg/ml in PBS, filter sterilized, dark tubes at −20° C., up to 3 months
Protocol: (§5) The photosensitizer TBO (Sigma) was dissolved in Dulbecco's Phosphate Buffered Saline (PBS) (Sigma) to a concentration of 1 mg/ml under ambient light. […] The stock was diluted to appropriate concentrations with PBS as required.

P. gingivalis [4] = test: Photodynamic therapy assay, bacteria suspended in PBS; type: cell-based, Porphyromonas gingivalis 381; details: for killing of P. gingivalis: light dose 2.2 J/cm^2, 50 μg/ml TBO, 5 min incubation
Text: The following bacteria were used in these experiments and cultivated in an anaerobic chamber (available commercially from Coy Manufacturing Co.; AnnArbor, Mich., USA): Porphyromonas gingivalis 381; Prevotella intermedia 25611; Actinobacillus actinomycetemcomitans UT32; Fusobacterium nucleatum 1213; Bacteroides forsythus 43037. P. gingivalis and P. intermedia strains were subcultured weekly in Todd Hewitt Broth (available commercially from Fisher Scientific; Nepean, Ontario, Canada; hereinafter referred to as Fisher) supplemented with 5 μg/ml hemin (Sigma-Aldrich Co.; Oakville, Ontario, Canada; hereinafter referred to as Sigma) and 1 μg/ml menadione (Sigma). A. actinomycetemcomitans was subcultured in Tryptic Soy Broth (Fisher) containing 6 g/l yeast extract (Fisher) and 8 ml of 1.5% sodium bicarbonate, filter sterilized (Fisher). F. nucleatum was subcultured in Todd Hewitt Broth. B. forsythus was subcultured in Brain Heart Infusion Broth (95 ml) (Fisher) supplemented with 0.001 g N-acetylmuramic acid (Sigma) in 5 ml Horse Serum (Cedarlane Laboratories; Hornby, Ontario, Canada), filter sterilized. Prior to experiments, a fresh broth tube was inoculated and allowed to grow overnight at 37° C. in the anaerobic chamber.
A 100 Watt red-filtered xenon fibre optic light source having a bandwidth of 620-640 nm (available commercially from EXFO, Inc.; Mississauga, Ontario, Canada) was used in these experiments. […] Light dose for each source was calculated by the cross product of the TBO absorption spectrum and light spectrum.
as §5, §3
Prior to light irradiation, 75 μl of calibrated bacterial suspension (7.5×10^8 cfu) was mixed with 75 μl of TBO stock solution (100 μg/ml) in a sterile tube, for a final mixture concentration of 5×10^9 cfu/ml and 50 μg/ml TBO. The mixture was then incubated at room temperature for 5 min. in the dark. TBO negative controls were incubated with an equal volume of sterile PBS instead of TBO. The mixture was then added to a sterilized perfusion chamber (Cedarlane Laboratories) mounted on a glass coverslip. The perfusion chamber was 500 μm thick, and so attenuation of the treatment light by the TBO was only 30% at 50 μg/ml. For most treatments at a concentration of 12.5 μg/ml TBO, the attenuation of treatment light was only 9%. The inoculated perfusion chamber was irradiated under the desired conditions with a light beam whose diameter covered the perfusion chamber's transparent surface. Upon completion, the mixture was removed and serially diluted in PBS and each dilution was plated on the following media: for P. gingivalis, P. intermedia, and F. nucleatum, Trypticase Soy Agar (Fisher) supplemented with 5 g/l yeast extract, 5 μg/ml hemin, 1 μg/ml menadione, 50 ml/l defibrinated sheep's blood (Oxoid, Inc.; Nepean, Ontario, Canada); for B. forsythus, Trypticase Soy Agar supplemented with 4 g/L yeast extract, 4 g/L trypticase peptone (Fisher), N-acetymuramic acid (10 mg/ml stock filter sterilized into medium to 10 mg/l); and for A. actinomycetemcomitans, Tryptic Soy Agar. […]

[5] = xenon lamp 6.3 J/cm^2, 100 mW/cm^2, 12.5 μg/ml TBO

Cc1cc2nc3ccc(N(C)C)cc3[s+]c2cc1N [TBO, toluidine blue O]
P. intermedia kill (P. intermedia): 5.33±0.62 logs
P. gingivalis killing with serum (P. gingivalis [1]; FBS 50% (v/v), xenon lamp 6.3 J/cm^2, 100 mW/cm^2, 12.5 μg/ml TBO): 3.05±1.02 logs
maximum blood resuspended P. gingivalis kill (P. gingivalis [1]; defibrinated sheep's blood, xenon lamp 20 J/cm^2, 100 mW/cm^2, 12.5 μg/ml TBO): 2.85±0.33 logs
kill of blood suspended P. gingivalis compared to TBO absent controls at higher light doses (P. gingivalis [1]; defibrinated sheep's blood, xenon lamp 100 mW/cm^2, 12.5 μg/ml TBO, light doses above 10 J/cm^2): ~3 log
A. actinomycetemcomitans kill (A. actinomycetemcomitans): 5.51±1.34 logs
P. gingivalis killing after serum washout (P. gingivalis [2]; [5]): 4.71±1.07 logs
P. gingivalis kill after serum washout (P. gingivalis [2]; xenon lamp 10 J/cm^2, 100 mW/cm^2, 12.5 μg/ml TBO): 5.48±0.68 logs
F. nucleatum kill (F. nucleatum): 4.7±0.72 logs
B. forsythus killing (B. forsythus): 3.92±0.68 logs
storage stability of stock solution [3]: without a loss in potency
increase in bacterial killing, xenon lamp versus He—Ne laser (P. gingivalis [4]; 2.2 J/cm^2, 50 μg/ml TBO): ~10 fold
reduction in viable bacteria (P. gingivalis [4]; He—Ne laser, 2.2 J/cm^2, 50 μg/ml TBO): approximately 270 ×
killing of P. gingivalis (P. gingivalis [4]; He—Ne laser): 2.43±0.39 logs
killing of P. gingivalis (P. gingivalis [4]; red-filtered xenon lamp): 3.34±0.24 logs
P. gingivalis kill in the absence of serum (P. gingivalis [4]; [5]): 6.02±0.76 logs
kill of P. gingivalis at each TBO concentration tested (P. gingivalis [4]; xenon lamp 6.3 J/cm^2 and 100 mW/cm^2, each drug concentration incl. 3.125, 6.25 and 12.5 μg/ml): 5 logs
kill of P. gingivalis (P. gingivalis [4]; xenon lamp 10 mW/cm^2, total light dose 2.2 J/cm^2, 50 μg/ml TBO): 2.12±0.36 logs
kill of P. gingivalis (P. gingivalis [4]; xenon lamp 25 mW/cm^2, total light dose 2.2 J/cm^2, 50 μg/ml TBO): 3.34±0.41 logs
bacterial kill of P. gingivalis (P. gingivalis [4]; xenon lamp 100 mW/cm^2, light dose 6.3 J/cm^2, 50 μg/ml TBO): 5 logs
kill of P. gingivalis (P. gingivalis [4]; xenon lamp 100 mW/cm^2, total light dose 2.2 J/cm^2, 50 μg/ml TBO): 3.41±0.58 logs
